The values that follow come from paper PMC9490236, “Accurate de novo design of membrane-traversing macrocycles” (Cell, 2022).

Where a SMILES comes first, the peptide text is derived from it. [ ]: non-standard residue; d: D form. NMeF = CN[C@@H](Cc1ccccc1)C(=O)O; dNMeF = CN[C@H](Cc1ccccc1)C(=O)O; NMeL = CN[C@@H](CC(C)C)C(=O)O; dNMeL = CN[C@H](CC(C)C)C(=O)O; NMeM = CN[C@@H](CCSC)C(=O)O; NMeV = CN[C@H](C(=O)O)C(C)C; NMeA = CN[C@@H](C)C(=O)O; dNMeA = CN[C@H](C)C(=O)O

One data set is described as follows: in vitro. To be noted: PAMPA, PAMPA_Papp_Avg.
For data set [1] the following is noted: PAMPA. (The PAMPA barrier holds no transporters, so it reflects passive diffusion.)

Broadly, the Papp is the rate of passage across a membrane or cell layer, normalised by area and donor concentration. Low readings indicate slow passage, high ones fast passage. On to `CC(C)C[C@@H]1NC(=O)[C@H](Cc2ccccc2)N(C)C(=O)[C@H]2CCCN2C(=O)[C@@H](CC(C)C)NC(=O)[C@@H](CC(C)C)NC(=O)[C@H](C)NC(=O)[C@H]2CCCN2C(=O)[C@@H]2CCCN2C(=O)[C@@H](C(C)C)NC1=O` [Design D9.32, DPRO ALA DLEU DLEU DPRO *PHE LEU DVAL PRO] (cyclo(A[dL][dL][dP][NMeF]L[dV]P[dP])), for which the Papp in “in vitro” was 0.24 ×10⁻⁶ cm/s. Further, in data set [1], the PAMPA_R1 is listed as 2.62E-07 and the PAMPA_R3 was 2.67E-07.
For `CC[C@@H](C)[C@H]1NC(=O)[C@H](CC(C)C)N(C)C(=O)[C@H]2CCCN2C(=O)[C@H](CC(C)C)NC(=O)[C@H](Cc2ccccc2)N(C)C(=O)CN(C)C(=O)[C@@H](C(C)C)NC(=O)[C@H](C)NC(=O)[C@H]2CCCN2C(=O)[C@@H]2CCCN2C1=O` (single isomer, unassigned) [Design D10.58.p1, *GLY *PHE LEU DPRO *LEU DILE PRO DPRO ALA DVAL], in that order: 0.376 ×10⁻⁶ cm/s, 3.35E-07 and 4.44E-07.
For the compound `CC(C)[C@@H]1NC(=O)[C@H]2CCCN2C(=O)[C@@H](C(C)C)NC(=O)[C@@H]2CCCN2C(=O)[C@H](Cc2ccccc2)NC(=O)[C@H](Cc2ccccc2)NC(=O)[C@H]2CCCN2C(=O)[C@@H](C(C)C)NC(=O)[C@@H]2CCCN2C(=O)[C@H](C(C)C)NC1=O` [Design D10.27, PRO DVAL DPRO VAL VAL PRO DVAL DPRO PHE PHE] (cyclo(FFP[dV][dP]VVP[dV][dP])), the Papp in the data set “in vitro” is 0.49 ×10⁻⁶ cm/s. In data set [1], this compound showed a PAMPA_R1 of 5.18E-07 and a PAMPA_R3 of 5.10E-07.
`CSCC[C@H]1C(=O)N(C)[C@H](C)C(=O)N[C@H](CC(C)C)C(=O)N2CCC[C@@H]2C(=O)N2CCC[C@H]2C(=O)N[C@@H](CC(C)C)C(=O)N2CCC[C@H]2C(=O)N2CCC[C@@H]2C(=O)N[C@H](C(C)C)C(=O)N1C` [Design D9.24, DPRO DVAL *MET *DALA DLEU DPRO PRO LEU PRO] (cyclo(LP[dP][dV][NMeM][dNMeA][dL][dP]P)) showed a Papp in the data set “in vitro” of 0.0869 ×10⁻⁶ cm/s. In data set [1], this compound returned a PAMPA_R1 of 7.85E-08 and a PAMPA_R3 of 8.51E-08.
For `CC(C)C[C@@H]1C(=O)N[C@@H](C)C(=O)N[C@H](CC(C)C)C(=O)N2CCC[C@H]2C(=O)N[C@H](C)C(=O)N2CCC[C@@H]2C(=O)N2CCC[C@H]2C(=O)N[C@H](C(C)C)C(=O)N[C@H](CC(C)C)C(=O)N(C)[C@H](CC(C)C)C(=O)N1C` [Design D10.43, DALA DPRO PRO DVAL DLEU *DLEU *DLEU ALA DLEU PRO] (cyclo([dV][dL][dNMeL][dNMeL]A[dL]P[dA][dP]P)) the same measures were 0.161 ×10⁻⁶ cm/s, 1.81E-07 and 1.70E-07.
As to `CC[C@H](C)[C@@H]1NC(=O)[C@H](C(C)C)NC(=O)[C@@H](CC(C)C)N(C)C(=O)[C@H](Cc2ccccc2)NC(=O)[C@@H](CC(C)C)N(C)C(=O)[C@@H](C)N(C)C(=O)[C@H]2CCCN2C(=O)[C@@H]2CCCN2C(=O)[C@H](CC(C)C)NC(=O)[C@@H](C)N(C)C(=O)[C@@H]2CCCN2C1=O` [Design D11.20, PRO *DALA LEU PRO DPRO *DALA *DLEU PHE *DLEU VAL ILE] (cyclo(F[dNMeL]VIP[dNMeA]LP[dP][dNMeA][dNMeL])), the Papp in “in vitro” worked out at 1.29 ×10⁻⁶ cm/s. In data set [1], this compound gave a PAMPA_R1 of 1.21E-06 and a PAMPA_R3 of 9.60E-07.
As to `CC(C)[C@H]1C(=O)N[C@H](Cc2ccccc2)C(=O)N2CCC[C@H]2C(=O)N[C@H](Cc2ccccc2)C(=O)N2CCC[C@H]2C(=O)N2CCC[C@H]2C(=O)N1C` [Design D6.6, PRO PRO *VAL DPHE PRO DPHE] (cyclo([NMeV][dF]P[dF]PP)), the Papp in the data set “in vitro” stood at 3.64 ×10⁻⁶ cm/s. In data set [1], this compound came in with a PAMPA_R1 of 2.64e-06 cm/s and a PAMPA_R3 of 6.73e-06 cm/s.
Consider `CC(C)C[C@@H]1NC(=O)[C@@H](CC(C)C)NC(=O)[C@@H]2CCCN2C(=O)[C@@H](CC(C)C)NC(=O)[C@H](C)N(C)C(=O)[C@H](C)NC(=O)[C@H](CC(C)C)N(C)C(=O)[C@@H]2CCCN2C(=O)[C@H](CC(C)C)NC(=O)[C@H](CC(C)C)N(C)C1=O` [Design D10.16, DLEU LEU *LEU LEU PRO *LEU ALA *ALA DLEU PRO] (cyclo(A[NMeA][dL]P[dL]L[NMeL]LP[NMeL])), for which the Papp in “in vitro” is 2.27 ×10⁻⁶ cm/s. Besides, in data set [1], the PAMPA_R1 is reported as 2.30E-06 and the PAMPA_R3 was found to be 2.32E-06.
In “in vitro”, `CC[C@H](C)[C@@H]1NC(=O)[C@@H](Cc2ccccc2)NC(=O)[C@@H](C)NC(=O)[C@@H](C(C)C)NC(=O)[C@H](CCSC)NC(=O)[C@@H]2CCCN2C(=O)[C@H]2CCCN2C(=O)[C@@H]2CCCN2C(=O)[C@@H](C)N(C)C(=O)[C@@H](CC(C)C)N(C)C1=O` [Design D10.45, DVAL DALA DPHE ILE *DLEU *DALA PRO DPRO PRO MET] (cyclo(M[dV][dA][dF]I[dNMeL][dNMeA]P[dP]P)) registered a Papp of 0.487 ×10⁻⁶ cm/s. In data set [1], the PAMPA_R1 amounted to 5.38E-07 and the PAMPA_R3 stood at 3.72E-07.
`CC(C)C[C@@H]1C(=O)N[C@@H](C)C(=O)N[C@H](CC(C)C)C(=O)N(C)[C@@H](C)C(=O)N2CCC[C@@H]2C(=O)N2CCC[C@@H]2C(=O)N2CCC[C@@H]2C(=O)N2CCC[C@H]2C(=O)N[C@H](C(C)C)C(=O)N(C)[C@@H](CC(C)C)C(=O)N1C` [Design D10.28, DLEU *ALA DPRO DPRO DPRO PRO DVAL *LEU *DLEU ALA] (cyclo([dV][NMeL][dNMeL]A[dL][NMeA][dP][dP][dP]P)) gave a Papp in “in vitro” of 0.184 ×10⁻⁶ cm/s. Further, in data set [1], the PAMPA_R1 is given as 1.56E-07 and the PAMPA_R3 was determined as 2.34E-07.
Take `CC[C@H](C)[C@@H]1NC(=O)[C@H](Cc2ccccc2)N(C)C(=O)[C@H](CC(C)C)N(C)C(=O)[C@@H](C(C)C)NC(=O)[C@@H](C)NC(=O)[C@@H]2CCCN2C(=O)[C@@H](CC(C)C)NC(=O)[C@@H]2CCCN2C(=O)[C@H](C)NC1=O` [Design D9.6, PRO DALA DVAL *LEU *PHE ILE ALA PRO DLEU]: in “in vitro”, the Papp stood at 1.63 ×10⁻⁶ cm/s. In data set [1], this compound gave a PAMPA_R1 of 1.38E-06 and a PAMPA_R3 of 1.96E-06.
`CC[C@@H](C)[C@H]1NC(=O)[C@H]2CCCN2C(=O)[C@H]([C@@H](C)CC)NC(=O)[C@H](CC(C)C)N(C)C(=O)[C@H]2CCCN2C(=O)[C@@H]2CCCN2C(=O)[C@H](Cc2ccccc2)N(C)C(=O)[C@H](Cc2ccccc2)NC(=O)[C@H]([C@@H](C)CC)NC1=O` [Design D9.13, DPRO DILE ILE PHE *PHE PRO DPRO *LEU ILE] (cyclo(F[NMeF]P[dP][NMeL]I[dP][dI]I)) came in with a Papp in “in vitro” of 3.37 ×10⁻⁶ cm/s. In data set [1], the PAMPA_R1 was 3.63E-06 and the PAMPA_R3 was determined as 3.09E-06.
Turning to `CC(C)C[C@@H]1NC(=O)[C@H](C)NC(=O)[C@@H]2CCCN2C(=O)[C@H]2CCCN2C(=O)[C@H](Cc2ccccc2)NC(=O)[C@H]2CCCN2C(=O)[C@@H](Cc2ccccc2)N(C)C(=O)[C@@H]2CCCN2C(=O)[C@@H](C)NC(=O)[C@H](CC(C)C)NC1=O` [Design D10.49, DALA PRO *DPHE DPRO PHE DPRO PRO ALA LEU LEU] (cyclo(ALL[dA]P[dNMeF][dP]F[dP]P)), in the data set “in vitro”, the Papp came out at 0.17 ×10⁻⁶ cm/s. In addition, in data set [1], the PAMPA_R1 worked out at 2.36E-07 and the PAMPA_R3 is given as 1.35E-07.
Take `CC(C)C[C@@H]1C(=O)N(C)[C@@H](CC(C)C)C(=O)N2CCC[C@@H]2C(=O)N[C@H](CC(C)C)C(=O)N[C@H](C)C(=O)N2CCC[C@@H]2C(=O)N2CCC[C@H]2C(=O)N[C@@H](C)C(=O)N[C@H](Cc2ccccc2)C(=O)N[C@H](CC(C)C)C(=O)N[C@@H](C(C)C)C(=O)N1C` (single isomer, unassigned) [Design D11.9.p1, VAL *DLEU *LEU DPRO DLEU DALA DPRO PRO ALA DPHE DLEU]: the Papp in “in vitro” was 0.641 ×10⁻⁶ cm/s. Besides, in data set [1], the PAMPA_R1 is 1.04E-06 and the PAMPA_R3 is listed as 2.42E-07.
In turn, `CC(C)C[C@H]1NC(=O)[C@@H](C(C)C)NC(=O)[C@H](CC(C)C)N(C)C(=O)[C@@H](Cc2ccccc2)NC(=O)[C@H](CC(C)C)N(C)C(=O)[C@H]2CCCN2C(=O)[C@@H]2CCCN2C(=O)[C@H]2CCCN2C(=O)[C@@H](C(C)C)NC(=O)[C@H]2CCCN2C1=O` [Design D10.42, DVAL DLEU DPRO DVAL DPRO PRO DPRO *LEU DPHE *LEU] (cyclo([dP][NMeL][dF][NMeL][dV][dL][dP][dV][dP]P)) returned a Papp in the data set “in vitro” of 0.71 ×10⁻⁶ cm/s. In data set [1], the PAMPA_R1 was determined as 7.55E-07 and the PAMPA_R3 is listed as 8.78E-07.
Turning to `CC[C@@H](C)[C@H]1NC(=O)[C@@H](Cc2ccccc2)NC(=O)[C@H](CC(C)C)NC(=O)[C@@H](C)N(C)C(=O)[C@@H](CC(C)C)NC(=O)[C@H](CC(C)C)NC(=O)[C@H]2CCCN2C(=O)[C@@H]2CCCN2C(=O)[C@@H](C)NC(=O)[C@H]2CCCN2C1=O` [Design D10.37, DLEU *DALA LEU DPHE DILE DPRO DALA PRO DPRO LEU] (cyclo(L[dF][dI][dP][dA]P[dP]L[dL][dNMeA])), the Papp in “in vitro” was determined as 0.654 ×10⁻⁶ cm/s. Also, in data set [1], the PAMPA_R1 is given as 7.62E-07 and the PAMPA_R3 turned out to be 6.36E-07.
In the data set “in vitro”, `CC(C)C[C@@H]1C(=O)N(C)[C@H](CC(C)C)C(=O)N2CCC[C@H]2C(=O)N[C@H](CC(C)C)C(=O)N2CCC[C@@H]2C(=O)N2CCC[C@@H]2C(=O)N(C)[C@H](CC(C)C)C(=O)N[C@H](Cc2ccccc2)C(=O)N[C@@H](C)C(=O)N1C` [Design D9.18, ALA *DLEU *DLEU PRO DLEU DPRO DPRO *DLEU DPHE] (cyclo(A[dNMeL][dNMeL]P[dL][dP][dP][dNMeL][dF])) came in with a Papp of 1.76 ×10⁻⁶ cm/s. For the same compound, in data set [1], the PAMPA_R1 was found to be 1.88E-06 and the PAMPA_R3 is 1.97E-06.
For `CC[C@@H](C)[C@H]1NC(=O)[C@H](C(C)C)NC(=O)[C@H]2CCCN2C(=O)[C@@H]2CCCN2C(=O)[C@H](CC(C)C)N(C)C(=O)[C@H](C)N(C)C(=O)[C@@H](CC(C)C)N(C)C(=O)[C@H](C)NC(=O)[C@@H](Cc2ccccc2)NC(=O)[C@@H]2CCCN2C1=O` [Design D10.25, DPHE ALA *DLEU *ALA *LEU PRO DPRO VAL DILE PRO] (cyclo(A[dNMeL][NMeA][NMeL]P[dP]V[dI]P[dF])) the same measures were 0.452 ×10⁻⁶ cm/s, 3.97E-07 and 4.39E-07.
